The values that follow are results of earlier work, collected in patent publication US20130202637A1, “Dietary Supplements Including Ellagitannins and Ellagic Acid” (priority 2012, published 2013).

In series [1] the test system is breast cancer.
In series [2] the test system is cervical cancer.

For the compound `O=c1oc2c(O)c(O)cc3c(=O)oc4c(O)c(O)cc1c4c23` [ellagic acid], the G-Arrest began in series [1] and in series [2] was 72 h each time.
